Assay results from patent US20140377216A1, “ANTICANCER FUSION PROTEIN” (ADAMED SP. Z.O.O., priority 2011, published 2014).

What was measured:
Format in all cases: in vivo, Crl:SHO-PrkdcscidHrhr mice
human lung cancer A549 = assay: Lung cancer model, Experiment B: A549 xenograft; conditions: A549, Crl:SHO mice; 20 mg/kg i.v. 6 times every second day; 34 day
Procedure: (§1) Tumor size was measured using electronic calliper, tumor volume was calculated using the formula: (a^2×b)/2, where a=shorter diagonal of the tumor (mm) and b=longer diagonal of the tumor (mm). Inhibition of tumor growth was calculated using the formula:
(§2) TGI[%](Tumor growth inhibition)=(WT/WC)×100−100%
(§3) wherein WT is the average tumor volume in the treatment group, and WC is the average tumor volume in the control group.
Experiment B. On day 0 Crl:SHO-Prkdc^scidHr^h mice were grafted subcutaneously (s.c.) in the right side with 7×10^6 of A549 cells suspended in 0.1 ml of the mixture HBSS:Matrigel 3:1 using syringe with a needle 0.5×25 mm (Bogmark). On the 17 day of the experiment mice were randomized to obtain the average size of tumors in the group of ˜100-120 mm^3 and assigned to treatment groups. The treatment groups were administered with the preparations of fusion protein of the invention of Ex. 11^a (40 mg/kg), and rhTRAIL114-281 (20 mg/kg) as a comparison against formulation buffer (19 mM NaH2PO4, 81 mM Na2HPO4, 50 mM NaCl, 5 mM glutathione, 0.1 mM ZnCl2, 10% glycerol, pH 7.4) as a control. The preparations were administered intravenously (i.v) 6 times once daily every second day. On the 34 day of the experiment mice were sacrificed by disruption of the spinal cord.

[1] = system: human liver cancer PLC/PRF/5; assay: Liver cancer model, Experiment B: PLC/PRF/5 xenograft; conditions: rhTRAIL 50 mg/kg i.v. six times every second day, 43th day
Procedure: as §1, §2, §3
On day 0 Crl:SHO-Prkdc^scidHr^hr mice were grafted subcutaneously (s.c.) in the right flank region with 7×10^6 of PLC/PRF/5 cells suspended in 0.1 ml of the 3:1 mixture HBSS buffer:Matrigel using syringe with a 0.5×25 mm needle (Bogmark). When tumors reached the size of 72-536 mm^3 (day 29), mice were randomized to obtain the average size of tumors in the group of ˜205 mm^3 and assigned to treatment groups. The treatment groups were administered with the preparations of fusion protein of the invention of Ex. 16^b (50 mg/kg) and rhTRAIL114-281 (50 mg/kg) as a comparison and reference compound 5-FU (5-Fluorouracil, Sigma-Aldrich) (30 mg/kg). The preparations were administered intravenously (i.v.) six times every second day, except 5-FU, which was applied intraperitoneally (i.p.) in the schedule (q1dx5)×2. The control group received formulation buffer.
When an experimental group reached the average tumor size of ˜1000 mm^3, mice were sacrificed by cervical dislocation.

[2] = system: human colon cancer Colo205; assay: Colon cancer model, Experiment C: Colo205 xenograft; conditions: rhTRAIL 30 mg/kg i.v. 6 times every second day, 33 day
Procedure: as §1, §2, §3
On day 0 Crl:SHO-Prkdc^scidHr^hr mice were grafted subcutaneously (s.c.) in the right side with 5×10^6 of Colo205 cells suspended in 0.1 ml of HBSS buffer using syringe with a needle 0.5×25 mm (Bogmark). On the 13 day of the experiment mice were randomized to obtain the average size of tumors in the group of ˜115 mm^3 and assigned to treatment groups.
The treatment groups were administered with the preparations of fusion protein of the invention of Ex. 16^a (30 mg/kg), and rhTRAIL114-281 (30 mg/kg) as a comparison against formulation buffer (19 mM NaH2PO4, 81 mM Na2HPO4, 50 mM NaCl, 5 mM glutathione, 0.1 mM ZnCl2, 10% glycerol, pH 7.4) as a control. The preparations were administered intravenously (i.v) 6 times once daily every second day. On the 33 day of the experiment mice were sacrificed by disruption of spinal cord.

[3] = system: human pancreas cancer PANC-1; assay: Pancreas cancer model, Experiment A: PANC-1 xenograft; conditions: 20 mg/kg i.v. 6 times every second day, 42 day
Procedure: as §1, §2, §3
On day 0 Crl:SHO-Prkdc^scidHr^hr mice were grafted subcutaneously (s.c.) in the right side with 5×10^6 of PANC-1 cells suspended in 0.1 ml of the mixture HBSS:Matrigel 3:1 using syringe with a needle 0.5×25 mm (Bogmark). On the 31 day of the experiment mice were randomized to obtain the average size of tumors in the group of ˜110 mm^3 and assigned to treatment groups. The treatment groups were administered with the preparations of fusion protein of the invention of Ex. 11^a (40 mg/kg), and rhTRAIL114-281 (20 mg/kg) as a comparison against formulation buffer (19 mM NaH2PO4, 81 mM Na2HPO4, 50 mM NaCl, 5 mM glutathione, 0.1 mM ZnCl2, 10% glycerol, pH 7.4) as a control. The preparations were administered intravenously (i.v) 6 times once daily every second day. On the 42 day of the experiment mice were sacrificed by disruption of the spinal cord.

[4] = system: pancreatic carcinoma MIA PaCa-2; assay: Pancreas cancer model, Experiment B: MIA PaCa-2 xenograft; conditions: rhTRAIL 50 mg/kg i.v. six times every second day, 61th day
Procedure: as §1, §2, §3
On day 0 Crl:SHO-Prkdc^scidHr^hr mice were grafted subcutaneously (s.c.) in the right flank region with 5×10^6 of MIA PaCa-2 cells suspended in 0.1 ml of 3:1 mixture HBSS buffer:Matrigel using syringe with a 0.5×25 mm needle (Bogmark). When tumors reached the size of 60-398 mm^3 (day 20), mice were randomized to obtain the average size of tumors in the group of ˜170 mm^3 and assigned to treatment groups. The treatment groups were administered with the preparations of fusion protein of the invention of Ex. 16^b (50 mg/kg) and rhTRAIL114-281 (50 mg/kg) as a comparison and reference compound gemcytabine (Gemzar, Eli Lilly) (50 mg/kg). The preparations were administered intravenously (i.v.) six times every second day, gemcytabine was applied intraperitoneally (i.p.) in the same schedule. The control group received formulation buffer.
When a therapeutic group reached the average tumor size of ˜1000 mm^3, mice were sacrificed by the cervical dislocation.

Substance: rhTRAIL114-281: recombinant human soluble TRAIL, amino acids 114-281 of hTRAIL, used as comparative reference
- TGI (tumor growth inhibition) relative to the control (human lung cancer A549): 21.8%
- TGI (tumor growth inhibition) relative to the control [1]: 25.2%
- TGI (tumor growth inhibition) relative to the control [2]: 18.8%
- TGI (tumor growth inhibition) relative to the control [3]: 26%
- TGI (tumor growth inhibition) relative to the control [4]: 68%
